# Test results reported in publication PMC2374293, “The equilibrium and kinetic drug binding properties of the mouse P-gp1a and P-gp1b P-glycoproteins are similar” (British Journal of Cancer, 1999).
# How the values were obtained:
# P-gp [1] = test: Sensitivity of [3H]vinblastine binding to DMSO; design: species or system mouse
# Source text: (§1) The two murine proteins share 84% amino acid identity, although the linker region which contains several sites for phosphorylation by protein kinase C (PKC) is the least conserved region between the two isoforms (Devault and Gros, 1990). […] P-gp1a is expressed at high levels in the intestine, liver and testis, and also in the lung and brain where it is thought to contribute to the blood-brain barrier (Schinkel et al, 1994). In contrast, P-gp1b is expressed in tissues associated with steroid biosynthesis and distribution, such as the adrenal gland and ovary, and is induced specifically in the uterus during pregnancy (Arceci et al, 1988; Trezise et al, 1992). The steroid hormone progesterone increases during pregnancy, and the mdr1b gene, but not the mdr1a gene, is regulated by a progesterone response element in its promoter (Piekarz et al, 1993). Direct evidence that the P-gp1b isoform can transport steroids comes from the observation that disruption of the mdr1b gene in mouse adrenal cells is associated with decreased adrenocorticotropic hormone-stimulated steroid secre- tion (Altuvia et al, 1993). […] More specifically, progesterone inhibits vinblastine binding and azidopine photolabelling of both of the mouse P-gp isoforms in vitro (Yang et al, 1990), showing that both isoforms are capable of interacting with steroids. […]
# P-gp [2] = test: Binding of [3H]progesterone to P-gp; design: species or system mouse; conditions: data not shown
# Source text: as §1
# P-gp1a [3] = target: T1, P-gp1a (Mus musculus, UniProt P21447); test: Association kinetics of [3H]vinblastine binding to LR73-1a membranes
# T1 construct: expressed in transfected cells; host or cells: Chinese hamster ovary LR73 cells (LR73-1a), plasma membrane fraction
# T1 sequence (P21447 whole entry): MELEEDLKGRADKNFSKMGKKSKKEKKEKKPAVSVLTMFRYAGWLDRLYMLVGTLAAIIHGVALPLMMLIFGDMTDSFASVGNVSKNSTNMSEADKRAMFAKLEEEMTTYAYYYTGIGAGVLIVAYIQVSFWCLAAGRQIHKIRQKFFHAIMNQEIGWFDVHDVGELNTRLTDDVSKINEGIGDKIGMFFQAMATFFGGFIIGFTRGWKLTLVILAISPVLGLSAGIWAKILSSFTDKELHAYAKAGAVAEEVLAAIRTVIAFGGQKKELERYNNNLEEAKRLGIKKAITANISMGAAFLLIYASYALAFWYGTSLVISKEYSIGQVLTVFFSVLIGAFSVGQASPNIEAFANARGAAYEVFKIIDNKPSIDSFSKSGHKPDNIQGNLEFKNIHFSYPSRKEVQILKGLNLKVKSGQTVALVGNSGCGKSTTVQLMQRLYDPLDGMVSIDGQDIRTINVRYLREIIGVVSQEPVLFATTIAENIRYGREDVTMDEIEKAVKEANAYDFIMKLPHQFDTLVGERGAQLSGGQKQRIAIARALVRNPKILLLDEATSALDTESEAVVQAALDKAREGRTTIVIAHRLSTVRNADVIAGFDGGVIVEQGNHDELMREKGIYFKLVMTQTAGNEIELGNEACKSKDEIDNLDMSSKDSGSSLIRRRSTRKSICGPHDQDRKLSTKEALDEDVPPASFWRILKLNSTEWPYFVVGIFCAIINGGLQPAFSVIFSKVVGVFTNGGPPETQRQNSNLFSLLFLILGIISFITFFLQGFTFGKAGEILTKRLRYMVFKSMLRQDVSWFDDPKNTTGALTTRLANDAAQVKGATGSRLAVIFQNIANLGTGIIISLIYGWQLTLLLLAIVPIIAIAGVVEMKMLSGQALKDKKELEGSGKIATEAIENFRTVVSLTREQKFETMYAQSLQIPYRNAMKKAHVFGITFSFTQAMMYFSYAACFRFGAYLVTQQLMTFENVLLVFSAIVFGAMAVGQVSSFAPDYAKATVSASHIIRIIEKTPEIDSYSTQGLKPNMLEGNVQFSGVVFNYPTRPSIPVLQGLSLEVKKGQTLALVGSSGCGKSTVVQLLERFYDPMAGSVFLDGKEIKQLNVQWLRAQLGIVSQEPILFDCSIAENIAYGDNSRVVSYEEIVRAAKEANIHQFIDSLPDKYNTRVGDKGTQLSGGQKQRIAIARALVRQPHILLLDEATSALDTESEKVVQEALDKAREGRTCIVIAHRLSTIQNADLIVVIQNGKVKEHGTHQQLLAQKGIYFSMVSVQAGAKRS
# Source text: (§2) The two murine proteins share 84% amino acid identity, although the linker region which contains several sites for phosphorylation by protein kinase C (PKC) is the least conserved region between the two isoforms (Devault and Gros, 1990). […] P-gp1a is expressed at high levels in the intestine, liver and testis, and also in the lung and brain where it is thought to contribute to the blood-brain barrier (Schinkel et al, 1994). In contrast, P-gp1b is expressed in tissues associated with steroid biosynthesis and distribution, such as the adrenal gland and ovary, and is induced specifically in the uterus during pregnancy (Arceci et al, 1988; Trezise et al, 1992). The steroid hormone progesterone increases during pregnancy, and the mdr1b gene, but not the mdr1a gene, is regulated by a progesterone response element in its promoter (Piekarz et al, 1993). Direct evidence that the P-gp1b isoform can transport steroids comes from the observation that disruption of the mdr1b gene in mouse adrenal cells is associated with decreased adrenocorticotropic hormone-stimulated steroid secre- tion (Altuvia et al, 1993). […] More specifically, progesterone inhibits vinblastine binding and azidopine photolabelling of both of the mouse P-gp isoforms in vitro (Yang et al, 1990), showing that both isoforms are capable of interacting with steroids. However, if the distinct tissue-specific patterns of expression of P-gp1a and P-gp1b reflect differences in function related to steroid transport, it is important to show directly that the two proteins are functionally distinct. […] Summary The gene encoding the multidrug resistance P-glycoprotein (P-gp) is duplicated in rodent species and the functional basis for this remains unresolved. […] In the present study possible biochemical differences between the isoforms were directly investigated at the level of drug interaction. […]
# P-gp1a [4] = target: T1, P-gp1a; test: Equilibrium (saturation) binding of [3H]vinblastine to LR73-1a plasma membranes, rapid filtration; conditions: LR73-1a membranes, mean s.e.m.
# Source text: as §1
# [5] = [3H]vinblastine binding to LR73 membranes that do not express P-gp; design: species or system Chinese hamster; conditions: data not shown
# Source text: as §1
# P-gp1b [6] = target: T2, P-gp1b (Mus musculus, UniProt P06795); test: Equilibrium (saturation) binding of [3H]vinblastine to LR73-1b plasma membranes, rapid filtration
# T2 construct: expressed in transfected cells; host or cells: Chinese hamster ovary LR73 cells (LR73-1b), plasma membrane fraction
# T2 sequence (P06795 whole entry): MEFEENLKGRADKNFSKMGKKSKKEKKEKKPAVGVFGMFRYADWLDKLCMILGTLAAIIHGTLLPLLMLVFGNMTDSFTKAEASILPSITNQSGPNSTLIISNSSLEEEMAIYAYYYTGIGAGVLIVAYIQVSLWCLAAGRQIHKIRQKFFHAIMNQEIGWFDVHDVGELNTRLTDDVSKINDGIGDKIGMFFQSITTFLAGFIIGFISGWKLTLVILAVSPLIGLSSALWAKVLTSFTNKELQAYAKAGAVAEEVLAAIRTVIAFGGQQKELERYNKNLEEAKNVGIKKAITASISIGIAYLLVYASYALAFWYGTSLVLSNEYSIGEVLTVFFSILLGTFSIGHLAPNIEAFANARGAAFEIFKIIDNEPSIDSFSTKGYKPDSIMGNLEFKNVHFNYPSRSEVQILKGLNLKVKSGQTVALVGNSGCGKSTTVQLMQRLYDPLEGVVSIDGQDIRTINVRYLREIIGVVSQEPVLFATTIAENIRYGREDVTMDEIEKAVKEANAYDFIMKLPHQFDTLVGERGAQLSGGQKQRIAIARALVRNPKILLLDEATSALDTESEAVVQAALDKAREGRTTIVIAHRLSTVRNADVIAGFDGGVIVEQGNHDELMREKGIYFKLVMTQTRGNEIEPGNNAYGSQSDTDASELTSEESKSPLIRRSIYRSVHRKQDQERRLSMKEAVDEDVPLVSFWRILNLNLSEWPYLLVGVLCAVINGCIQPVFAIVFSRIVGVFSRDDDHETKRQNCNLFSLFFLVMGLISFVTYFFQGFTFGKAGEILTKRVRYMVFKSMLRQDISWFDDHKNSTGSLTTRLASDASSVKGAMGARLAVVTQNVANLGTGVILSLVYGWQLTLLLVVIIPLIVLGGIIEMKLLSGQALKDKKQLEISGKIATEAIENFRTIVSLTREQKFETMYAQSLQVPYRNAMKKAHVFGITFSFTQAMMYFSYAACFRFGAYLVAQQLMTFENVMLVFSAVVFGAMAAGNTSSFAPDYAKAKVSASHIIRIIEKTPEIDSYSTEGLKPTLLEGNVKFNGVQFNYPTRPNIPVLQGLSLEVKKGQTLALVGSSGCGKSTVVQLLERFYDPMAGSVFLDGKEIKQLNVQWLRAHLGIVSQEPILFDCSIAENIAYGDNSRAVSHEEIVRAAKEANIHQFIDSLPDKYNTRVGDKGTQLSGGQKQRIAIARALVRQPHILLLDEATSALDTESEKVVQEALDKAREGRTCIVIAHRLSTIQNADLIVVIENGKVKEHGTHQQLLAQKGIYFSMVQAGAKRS
# Source text: as §2
# P-gp1b [7] = target: T2, P-gp1b; test: Association kinetics of [3H]vinblastine binding to LR73-1b membranes
# Source text: as §2
# P-gp1b [8] = target: T2, P-gp1b; test: Displacement of equilibrium [3H]vinblastine binding, LR73-1b membranes
# Source text: as §1
# P-gp1a [9] = target: T1, P-gp1a; test: Displacement of equilibrium [3H]vinblastine binding, LR73-1a membranes
# Source text: as §1
# [10] = tested on: drug-sensitive cells (LR73); test: Vinblastine sensitivity of drug-sensitive cells in culture; type: cell-based, Chinese hamster; conditions: Cricetulus griseus
# Source text: as §1
# [11] = tested on: Drug-resistant lines (LR73-1a, LR73-1b); test: Maximal vinblastine resistance level of drug-resistant lines in culture; type: cell-based, Chinese hamster; conditions: Cricetulus griseus, read-out: EC50, maximal resistance level of the cells
# Source text: as §1
compound,measurement,setting,value
"C[S+](C)[O-] [DMSO, dimethylsulphoxide]",EC50 on [3H]vinblastine binding,P-gp [1],2.5 % (v/v)
CC(=O)[C@H]1CC[C@H]2[C@@H]3CCC4=CC(=O)CC[C@]4(C)[C@H]3CC[C@]12C [[3H]progesterone],binding characteristics to P-gp,P-gp [2],"poor affinity, low specific binding"
CC[C@]1(O)C[C@@H]2CN(CCc3c([nH]c4ccccc34)[C@@](C(=O)OC)(c3cc4c(cc3OC)N(C)[C@H]3[C@@](O)(C(=O)OC)[C@H](OC(C)=O)[C@]5(CC)C=CCN6CC[C@]43[C@@H]65)C2)C1 [[3H]vinblastine],association rate constant (k+1),"P-gp1a [3]; LR73-1a membranes, 15-20 nM [3H]vinblastine",0.002 0.0005 min-1 nM-1
same,rate constant of [3H]vinblastine dissociation (k-1),"P-gp1a [3]; LR73-1a membranes, derived from Figure 3",0.07 0.02 min-1
same,Kd,"P-gp1a [3]; P-gp1a, read-out: Estimate of dissociation constant (Kd = k-1/k+1) using the kinetic data",35 nM
same,Kd,"P-gp1a [4]; equilibrium, read-out: Kd, affinity of [3H]vinblastine binding",32.9 nM
same,"Bmax, density of specific binding sites",P-gp1a [4],24.5 2.9 pmol mg-1
same,specific binding,[5],did not bind specifically
same,Bmax,"P-gp1b [6]; Figure 2, single representative experiment",8.6 1.4 pmol mg-1
same,Kd,"P-gp1b [6]; LR73-1b membranes, equilibrium, mean s.e.m., read-out: Kd, affinity of [3H]vinblastine binding",30.7 nM
same,"Bmax, density of specific binding sites","P-gp1b [6]; LR73-1b membranes, mean s.e.m.",14.1 2.9 pmol mg-1
same,association rate constant (k+1),"P-gp1b [7]; LR73-1b membranes, 15-20 nM [3H]vinblastine",0.002 0.0006 min-1 nM-1
same,rate constant of [3H]vinblastine dissociation (k-1),"P-gp1b [7]; LR73-1b membranes, derived from Figure 3",0.11 0.02 min-1
same,Kd,"P-gp1b [7]; P-gp1b, read-out: Estimate of dissociation constant (Kd = k-1/k+1) using the kinetic data",55 nM
CC(=O)[C@H]1CC[C@H]2[C@@H]3CCC4=CC(=O)CC[C@]4(C)[C@H]3CC[C@]12C [progesterone],Ki,P-gp1b [8],1800 nM
same,Ki,P-gp1a [9],1900 nM
"CC[C@]1(O)C[C@@H]2CN(CCc3c([nH]c4ccccc34)[C@@](C(=O)OC)(c3cc4c(cc3OC)N(C)[C@H]3[C@@](O)(C(=O)OC)[C@H](OC(C)=O)[C@]5(CC)C=CCN6CC[C@]43[C@@H]65)C2)C1 [vinblastine sulphate, Vinblastine sulphate]",EC50,[10],0.01 µg/mL
same,EC50,[11],0.2 to 0.25 µg/mL
